Data reported in US20230372221A1, “USE OF THIOPYRIDINONE COMPOUNDS FOR PREVENTING THE FORMATION OF CUTANEOUS BLACKHEADS” (L'OREAL, priority 2020, published 2023).

Tested on: oxidation of the L-DOPA under the action of the bacterial extract (intracellular extract of Cutibacterium acnes CIP 53.117)
Test: In vitro evaluation of the ability to inhibit the development of the colour (absorbance at 475 nm of L-DOPA + Cutibacterium acnes extract)
Format: biochemical
Conditions: for inhibiting the development of the colour (result in words): compared with Reference (absence of treatment); for optical density at 475 nm: 32° C.; for % inhib (percentage of inhibition of the formation of the coloured product): from initial rate of oxidation between 10 and 40 minutes vs reference composition
Description: This method is based on the measurement of absorbance, over time, carried out directly on a composition formed of a mixture of intracellular extract of bacteria of Cutibacterium acnes type, of 3,4-dihydroxy-L-phenylalanine (L-DOPA) and of a test compound. The measurements are compared with those carried out for a mixture of an intracellular extract of bacteria of Cutibacterium acnes type and of 3,4-dihydroxy-L-phenylalanine (L-DOPA), in the absence of test compound (reference). The method is adapted from a method for the enzymatic assay of the tyrosinase activity (Behbahani et al., Microchemical Journal (1993), 47, 251), which is based on the absorbance properties at 475 nm of a coloured intermediate of the pathway for the biosynthesis of melanin starting from L-DOPA, namely dopachrome, a product of the oxidation of L-DOPA. An intracellular extract of bacteria of Cutibacterium acnes CIP 53.117 type stored at 4° C. in the lyophilized form is suspended in 1×PBS (supplied by Gibco BRL Life Technologies) at a concentration of 6 mg/ml. A solution of L-DOPA at a concentration of 0.5 mg/ml is prepared by bringing together L-DOPA (supplied by Sigma-Aldrich) and milliQ water, so as to have an L-DOPA concentration of 1 mg/ml, then diluting with 1×PBS (Dulbecco's Phosphate Buffered Saline, supplied by Gibco BRL Life Technologies). The mixture of 50 μl of these two solutions and of 100 μl of 1×PBS (Dulbecco's Phosphate Buffered Saline, supplied by Gibco BRL Life Technologies) results in a composition with a total volume of 200 μl containing L-DOPA (at a concentration of 125 μg/ml) and Cutibacterium acnes extract (at a concentration of 1.5 mg/ml). The test compositions and the reference composition are introduced separately into wells of a 96-well microplate suitable for reading in visible spectrophotometry, and placed at a temperature of 32° C. The formation of a coloured product is monitored over time by spectrophotometry. To do this, the absorbance, or optical density (O.D.), is measured at 475 nm from the time 0 to the time 2 hours by means of a Spectra Max M5e reader and the Spectra Max software (the time 0 corresponds to the introduction of the composition into the wells). The ability to inhibit the development of the colour of a given compound was assessed by comparing the absorbance measurements obtained for the test compositions with those obtained for the reference composition. More specifically, the inhibitory effect of the test compound was evaluated by comparing the initial rate of oxidation of the L-DOPA under the action of the bacterial extract at 475 nm for the test composition with that of the reference composition in order to obtain a corresponding percentage of inhibition. In practice, the initial rate (Vi) of the oxidation reaction is calculated from the linear part of the curve of the graph of the absorbance values. As this part lies between 10 and 40 minutes (see the graph in FIG. 1), the initial rate of the oxidation reaction is determined using the following relationship: [formula] The percentage of inhibition (% inhib) of a given compound with regard to the formation of the coloured product is subsequently obtained using the values of the initial rate of the oxidation reaction for the reference composition (Viref) and for the test composition ([…]) according to the following relationship: [formula] Within the meaning of the invention, a compound is regarded as having an inhibitory effect if the % inhib value is at least 15%.

[1] = test compound 12.5 μM, duration 0 minutes
[2] = test compound 12.5 μM, duration 10 minutes
[3] = test compound 12.5 μM, duration 20 minutes
[4] = test compound 12.5 μM, duration 30 minutes
[5] = test compound 12.5 μM, duration 40 minutes
[6] = test compound 12.5 μM, duration 60 minutes
[7] = test compound 12.5 μM, duration 80 minutes
[8] = test compound 12.5 μM, duration 100 minutes
[9] = test compound 12.5 μM, duration 120 minutes
[10] = test compound 25 μM, duration 0 minutes
[11] = test compound 25 μM, duration 10 minutes
[12] = test compound 25 μM, duration 20 minutes
[13] = test compound 25 μM, duration 30 minutes
[14] = test compound 25 μM, duration 40 minutes
[15] = test compound 25 μM, duration 60 minutes
[16] = test compound 25 μM, duration 80 minutes
[17] = test compound 25 μM, duration 100 minutes
[18] = test compound 25 μM, duration 120 minutes
[19] = test compound 50 μM, duration 0 minutes
[20] = test compound 50 μM, duration 10 minutes
[21] = test compound 50 μM, duration 20 minutes
[22] = test compound 50 μM, duration 30 minutes
[23] = test compound 50 μM, duration 40 minutes
[24] = test compound 50 μM, duration 60 minutes
[25] = test compound 50 μM, duration 80 minutes
[26] = test compound 50 μM, duration 100 minutes
[27] = test compound 50 μM, duration 120 minutes
[28] = test compound 100 μM, duration 0 minutes
[29] = test compound 100 μM, duration 10 minutes
[30] = test compound 100 μM, duration 20 minutes
[31] = test compound 100 μM, duration 30 minutes
[32] = test compound 100 μM, duration 40 minutes
[33] = test compound 100 μM, duration 60 minutes
[34] = test compound 100 μM, duration 80 minutes
[35] = test compound 100 μM, duration 100 minutes
[36] = test compound 100 μM, duration 120 minutes

CCOC(=O)CN(C)C(=O)c1ccc[nH]c1=S [Compound 4, Ethyl N-methyl-N-[(2-thioxo-1,2-dihydropyridin-3-yl)carbonyl]glycinate]
inhibiting the development of the colour (result in words): very effective | optical density at 475 nm [1]: 0.0550 | optical density at 475 nm [2]: 0.0571 | optical density at 475 nm [3]: 0.0585 | optical density at 475 nm [4]: 0.0604 | optical density at 475 nm [5]: 0.0627 | optical density at 475 nm [6]: 0.0659 | optical density at 475 nm [7]: 0.0679 | optical density at 475 nm [8]: 0.0696 | optical density at 475 nm [9]: 0.0709 | % inhib (percentage of inhibition of the formation of the coloured product) (test compound 12.5 μM): 43% | optical density at 475 nm [10]: 0.0573 | optical density at 475 nm [11]: 0.0586 | optical density at 475 nm [12]: 0.0595 | optical density at 475 nm [13]: 0.0609 | optical density at 475 nm [14]: 0.0623 | optical density at 475 nm [15]: 0.0650 | optical density at 475 nm [16]: 0.0682 | optical density at 475 nm [17]: 0.0695 | optical density at 475 nm [18]: 0.0703 | % inhib (percentage of inhibition of the formation of the coloured product) (test compound 25 μM): 63% | optical density at 475 nm [19]: 0.0558 | optical density at 475 nm [20]: 0.0574 | optical density at 475 nm [21]: 0.0580 | optical density at 475 nm [22]: 0.0591 | optical density at 475 nm [23]: 0.0599 | optical density at 475 nm [24]: 0.0617 | optical density at 475 nm [25]: 0.0634 | optical density at 475 nm [26]: 0.0654 | optical density at 475 nm [27]: 0.0666 | % inhib (percentage of inhibition of the formation of the coloured product) (test compound 50 μM): 75% | optical density at 475 nm [28]: 0.0578 | optical density at 475 nm [29]: 0.0579 | optical density at 475 nm [30]: 0.0593 | optical density at 475 nm [31]: 0.0601 | optical density at 475 nm [32]: 0.0608 | optical density at 475 nm [33]: 0.0618 | optical density at 475 nm [34]: 0.0623 | optical density at 475 nm [35]: 0.0627 | optical density at 475 nm [36]: 0.0631 | % inhib (percentage of inhibition of the formation of the coloured product) (test compound 100 μM): 71%

CCNC(=O)c1ccc[nH]c1=S [Compound 1, N-ethyl-2-thioxo-1,2-dihydropyridine-3-carboxamide]
inhibiting the development of the colour (result in words): very effective | optical density at 475 nm [1]: 0.0553 | optical density at 475 nm [2]: 0.0553 | optical density at 475 nm [3]: 0.0561 | optical density at 475 nm [4]: 0.0569 | optical density at 475 nm [5]: 0.0584 | optical density at 475 nm [6]: 0.0605 | optical density at 475 nm [7]: 0.0631 | optical density at 475 nm [8]: 0.0661 | optical density at 475 nm [9]: 0.0681 | % inhib (percentage of inhibition of the formation of the coloured product) (test compound 12.5 μM): 66% | optical density at 475 nm [10]: 0.0554 | optical density at 475 nm [11]: 0.0560 | optical density at 475 nm [12]: 0.0572 | optical density at 475 nm [13]: 0.0587 | optical density at 475 nm [14]: 0.0596 | optical density at 475 nm [15]: 0.0601 | optical density at 475 nm [16]: 0.0611 | optical density at 475 nm [17]: 0.0627 | optical density at 475 nm [18]: 0.0640 | % inhib (percentage of inhibition of the formation of the coloured product) (test compound 25 μM): 60% | optical density at 475 nm [19]: 0.0541 | optical density at 475 nm [20]: 0.0565 | optical density at 475 nm [21]: 0.0568 | optical density at 475 nm [22]: 0.0569 | optical density at 475 nm [23]: 0.0568 | optical density at 475 nm [24]: 0.0575 | optical density at 475 nm [25]: 0.0574 | optical density at 475 nm [26]: 0.0598 | optical density at 475 nm [27]: 0.0597 | % inhib (percentage of inhibition of the formation of the coloured product) (test compound 50 μM): 96% | optical density at 475 nm [28]: 0.0568 | optical density at 475 nm [29]: 0.0555 | optical density at 475 nm [30]: 0.0548 | optical density at 475 nm [31]: 0.0561 | optical density at 475 nm [32]: 0.0555 | optical density at 475 nm [33]: 0.0557 | optical density at 475 nm [34]: 0.0559 | optical density at 475 nm [35]: 0.0564 | optical density at 475 nm [36]: 0.0567 | % inhib (percentage of inhibition of the formation of the coloured product) (test compound 100 μM): 100%

O=C(O)CNC(=O)c1ccc[nH]c1=S [Compound 2, N-[(2-thioxo-1,2-dihydropyridin-3-yl)carbonyl]glycine]
inhibiting the development of the colour (result in words): very effective | optical density at 475 nm [28]: 0.0547 | optical density at 475 nm [29]: 0.0561 | optical density at 475 nm [30]: 0.0567 | optical density at 475 nm [31]: 0.0569 | optical density at 475 nm [32]: 0.0574 | optical density at 475 nm [33]: 0.0578 | optical density at 475 nm [34]: 0.0578 | optical density at 475 nm [35]: 0.0578 | optical density at 475 nm [36]: 0.0580 | % inhib (percentage of inhibition of the formation of the coloured product) (test compound 100 μM): 84%
